# Data reported in US6489469B1, “Method for storing or transporting erythritol solution” (Nikken Chemicals Co., Ltd., priority 1999, dated 2002).
# Tests used:
# [1] = test system: Escherichia coli IFO 3972; assay: Viable Count of Escherichia coli IFO 3972 in Erythritol Solution; format: cell-based
# Procedure: Erythritol solutions of respective concentrations in the range of from 30 to 60% were prepared. To these were inoculated Staphylococcus aureus IFO 13276, Bacillus subtilis IFO 3134, and Escherichia coli IFO 3972 as bacteria, Candida albicans IFO 1549 and Saccharomyces cerevisiae ATCC 9763 as yeasts, Aspergillus niger IFO 6342, Aspergillus flavus IFO 6343, and Penicillium funiculosum IFO 6345 as fungi, respectively, in a population (concentration) of 10,000 cells/mL or more. After the inoculation, the solutions were stored at 30, 37, 45, 50, or 60° C., respectively, for 56 days and the number of viable cell was determined daily. The determination of the number of viable cell was performed by a method of coating 0.1 mL of appropriately diluted sample cultivation on an agar plate and cultivating and counting the number of viable cell (the number of colony) that grew after the cultivation.
# [2] = Long-term Stability of Erythritol Solution by High Temperature Storage; format: physicochemical; parameters: change in the degree of coloring / Degree of Coloring: scale not given here
# Procedure: solutions having erythritol concentrations of 50%, 55%, 58% and 62%, respectively, were prepared and stored at 55° C., 60° C., 65° C. and 75° C. respectively, for 2 months and degree of coloring, pH, and purity were measured and the degree of deterioration was studied.
# [3] = 75° C., short period of 10 days or less
# [4] = Storage Temperature: 55° C., Erythritol Concentration: 50%, 0 days
# [5] = Storage Temperature: 55° C., Erythritol Concentration: 50%, 10 days
# [6] = Storage Temperature: 55° C., Erythritol Concentration: 50%, 30 days
# [7] = Storage Temperature: 55° C., Erythritol Concentration: 50%, 60 days
# [8] = Storage Temperature: 60° C., Erythritol Concentration: 55%, 0 days
# [9] = Storage Temperature: 60° C., Erythritol Concentration: 55%, 10 days
# [10] = Storage Temperature: 60° C., Erythritol Concentration: 55%, 30 days
# [11] = Storage Temperature: 60° C., Erythritol Concentration: 55%, 60 days
# [12] = Storage Temperature: 65° C., Erythritol Concentration: 58%, 0 days
# [13] = Storage Temperature: 65° C., Erythritol Concentration: 58%, 10 days
# [14] = Storage Temperature: 65° C., Erythritol Concentration: 58%, 30 days
# [15] = Storage Temperature: 65° C., Erythritol Concentration: 58%, 60 days
# [16] = Storage Temperature: 75° C., Erythritol Concentration: 62%, 0 days
# [17] = Storage Temperature: 75° C., Erythritol Concentration: 62%, 10 days
# [18] = Storage Temperature: 75° C., Erythritol Concentration: 62%, 30 days
# [19] = Storage Temperature: 75° C., Erythritol Concentration: 62%, 60 days
smiles,measurement,setting,value
"OC[C@@H](O)[C@@H](O)CO [Erythritol Solution, erythritol]",The Number of Viable Cell,"[1]; 30° C., 30% w/w, Day 0",10000 or more cells/mL
same,The Number of Viable Cell,"[1]; 30° C., 30% w/w, Day 3",10000 or more cells/mL
same,The Number of Viable Cell,"[1]; 30° C., 30% w/w, Day 7",10000 or more cells/mL
same,The Number of Viable Cell,"[1]; 30° C., 30% w/w, Day 14",7780 cells/mL
same,The Number of Viable Cell,"[1]; 30° C., 30% w/w, Day 28",110 cells/mL
same,The Number of Viable Cell,"[1]; 30° C., 30% w/w, Day 56",0 cells/mL
same,The Number of Viable Cell,"[1]; 30° C., 40% w/w, Day 0",10000 or more cells/mL
same,The Number of Viable Cell,"[1]; 30° C., 40% w/w, Day 3",10400 cells/mL
same,The Number of Viable Cell,"[1]; 30° C., 40% w/w, Day 7",2820 cells/mL
same,The Number of Viable Cell,"[1]; 30° C., 40% w/w, Day 14",420 cells/mL
same,The Number of Viable Cell,"[1]; 30° C., 40% w/w, Day 28",0 cells/mL
same,The Number of Viable Cell,"[1]; 30° C., 40% w/w, Day 56",0 cells/mL
same,The Number of Viable Cell,"[1]; 37° C., 30% w/w, Day 0",10000 or more cells/mL
same,The Number of Viable Cell,"[1]; 37° C., 30% w/w, Day 3",10000 or more cells/mL
same,The Number of Viable Cell,"[1]; 37° C., 30% w/w, Day 7",8270 cells/mL
same,The Number of Viable Cell,"[1]; 37° C., 30% w/w, Day 14",0 cells/mL
same,The Number of Viable Cell,"[1]; 37° C., 30% w/w, Day 28",0 cells/mL
same,The Number of Viable Cell,"[1]; 37° C., 30% w/w, Day 56",0 cells/mL
same,The Number of Viable Cell,"[1]; 37° C., 40% w/w, Day 0",10000 or more cells/mL
same,The Number of Viable Cell,"[1]; 37° C., 40% w/w, Day 3",11100 cells/mL
same,The Number of Viable Cell,"[1]; 37° C., 40% w/w, Day 7",140 cells/mL
same,The Number of Viable Cell,"[1]; 37° C., 40% w/w, Day 14",0 cells/mL
same,The Number of Viable Cell,"[1]; 37° C., 40% w/w, Day 28",0 cells/mL
same,The Number of Viable Cell,"[1]; 37° C., 40% w/w, Day 56",0 cells/mL
same,The Number of Viable Cell,"[1]; 45° C., 30% w/w, Day 0",10000 or more cells/mL
same,The Number of Viable Cell,"[1]; 45° C., 30% w/w, Day 3",450 cells/mL
same,The Number of Viable Cell,"[1]; 45° C., 30% w/w, Day 7",0 cells/mL
same,The Number of Viable Cell,"[1]; 45° C., 30% w/w, Day 14",0 cells/mL
same,The Number of Viable Cell,"[1]; 45° C., 30% w/w, Day 28",0 cells/mL
same,The Number of Viable Cell,"[1]; 45° C., 30% w/w, Day 56",0 cells/mL
same,The Number of Viable Cell,"[1]; 45° C., 40% w/w, Day 0",10000 or more cells/mL
same,The Number of Viable Cell,"[1]; 45° C., 40% w/w, Day 3",0 cells/mL
same,The Number of Viable Cell,"[1]; 45° C., 40% w/w, Day 7",0 cells/mL
same,The Number of Viable Cell,"[1]; 45° C., 40% w/w, Day 14",0 cells/mL
same,The Number of Viable Cell,"[1]; 45° C., 40% w/w, Day 28",0 cells/mL
same,The Number of Viable Cell,"[1]; 45° C., 40% w/w, Day 56",0 cells/mL
same,The Number of Viable Cell,"[1]; 45° C., 50% w/w, Day 0",10000 or more cells/mL
same,The Number of Viable Cell,"[1]; 45° C., 50% w/w, Day 3",0 cells/mL
same,The Number of Viable Cell,"[1]; 45° C., 50% w/w, Day 7",0 cells/mL
same,The Number of Viable Cell,"[1]; 45° C., 50% w/w, Day 14",0 cells/mL
same,The Number of Viable Cell,"[1]; 45° C., 50% w/w, Day 28",0 cells/mL
same,The Number of Viable Cell,"[1]; 45° C., 50% w/w, Day 56",0 cells/mL
same,The Number of Viable Cell,"[1]; 50° C., 30% w/w, Day 0",10000 or more cells/mL
same,The Number of Viable Cell,"[1]; 50° C., 30% w/w, Day 3",0 cells/mL
same,The Number of Viable Cell,"[1]; 50° C., 30% w/w, Day 7",0 cells/mL
same,The Number of Viable Cell,"[1]; 50° C., 30% w/w, Day 14",0 cells/mL
same,The Number of Viable Cell,"[1]; 50° C., 30% w/w, Day 28",0 cells/mL
same,The Number of Viable Cell,"[1]; 50° C., 30% w/w, Day 56",0 cells/mL
same,The Number of Viable Cell,"[1]; 50° C., 40% w/w, Day 0",10000 or more cells/mL
same,The Number of Viable Cell,"[1]; 50° C., 40% w/w, Day 3",0 cells/mL
same,The Number of Viable Cell,"[1]; 50° C., 40% w/w, Day 7",0 cells/mL
same,The Number of Viable Cell,"[1]; 50° C., 40% w/w, Day 14",0 cells/mL
same,The Number of Viable Cell,"[1]; 50° C., 40% w/w, Day 28",0 cells/mL
same,The Number of Viable Cell,"[1]; 50° C., 40% w/w, Day 56",0 cells/mL
same,The Number of Viable Cell,"[1]; 50° C., 50% w/w, Day 0",10000 or more cells/mL
same,The Number of Viable Cell,"[1]; 50° C., 50% w/w, Day 3",0 cells/mL
same,The Number of Viable Cell,"[1]; 50° C., 50% w/w, Day 7",0 cells/mL
same,The Number of Viable Cell,"[1]; 50° C., 50% w/w, Day 14",0 cells/mL
same,The Number of Viable Cell,"[1]; 50° C., 50% w/w, Day 28",0 cells/mL
same,The Number of Viable Cell,"[1]; 50° C., 50% w/w, Day 56",0 cells/mL
same,growth of the microbes,[1]; temperature of 50° C. or more,prevented from growing
same,time after which microbes died,[1]; temperature of 50° C. or more,3 days
same,change in pH,[2]; [3],≤ 1
same,change in purity,[2]; [3],no change
same,change in the degree of coloring,[2]; [3],≤ 0.01
same,Degree of Coloring,[2]; [4],0.028
same,Purity (%),[2]; [4],99.9%
same,pH,[2]; [4],5.7
same,Degree of Coloring,[2]; [5],0.028
same,Purity (%),[2]; [5],99.9%
same,pH,[2]; [5],5.6
same,Degree of Coloring,[2]; [6],0.026
same,Purity (%),[2]; [6],100.0%
same,pH,[2]; [6],5.4
same,Degree of Coloring,[2]; [7],0.027
same,Purity (%),[2]; [7],100.0%
same,pH,[2]; [7],5.1
same,Degree of Coloring,[2]; [8],0.021
same,Purity (%),[2]; [8],99.9%
same,pH,[2]; [8],5.7
same,Degree of Coloring,[2]; [9],0.021
same,Purity (%),[2]; [9],99.9%
same,pH,[2]; [9],5.4
same,Degree of Coloring,[2]; [10],0.023
same,Purity (%),[2]; [10],99.9%
same,pH,[2]; [10],5.5
same,Degree of Coloring,[2]; [11],0.028
same,Purity (%),[2]; [11],99.9%
same,pH,[2]; [11],5.0
same,Degree of Coloring,[2]; [12],0.029
same,Purity (%),[2]; [12],100.0%
same,pH,[2]; [12],5.7
same,Degree of Coloring,[2]; [13],0.030
same,Purity (%),[2]; [13],99.9%
same,pH,[2]; [13],5.5
same,Degree of Coloring,[2]; [14],0.029
same,Purity (%),[2]; [14],100.0%
same,pH,[2]; [14],5.2
same,Degree of Coloring,[2]; [15],0.036
same,Purity (%),[2]; [15],99.9%
same,pH,[2]; [15],4.7
same,Degree of Coloring,[2]; [16],0.025
same,Purity (%),[2]; [16],99.9%
same,pH,[2]; [16],5.7
same,Degree of Coloring,[2]; [17],0.027
same,Purity (%),[2]; [17],99.9%
same,pH,[2]; [17],5.2
same,Degree of Coloring,[2]; [18],0.033
same,Purity (%),[2]; [18],99.9%
same,pH,[2]; [18],4.8
same,Degree of Coloring,[2]; [19],0.065
same,Purity (%),[2]; [19],99.9%
same,pH,[2]; [19],3.9
same,"storage stability (purity, coloring)",[2]; storage at a temperature of 55 to 65° C.,without causing a decrease in purity or causing coloring
